Broadly, the IC50 is the concentration that gives 50% inhibition. High values mean lower potency, low ones higher potency.

The target of the assay is Human immunodeficiency virus type 1 integrase (Human immunodeficiency virus 1, UniProt Q7ZJM1). The assay is described as follows: Inhibition of Human immunodeficiency virus 1 integrase 3'-processing activity expressed in Escherichia coli using 21-mer DNA and Mg2+ after 2 hrs by polyacrylamide gel electrophoresis.
Chain of Human immunodeficiency virus type 1 integrase (Q7ZJM1 whole entry): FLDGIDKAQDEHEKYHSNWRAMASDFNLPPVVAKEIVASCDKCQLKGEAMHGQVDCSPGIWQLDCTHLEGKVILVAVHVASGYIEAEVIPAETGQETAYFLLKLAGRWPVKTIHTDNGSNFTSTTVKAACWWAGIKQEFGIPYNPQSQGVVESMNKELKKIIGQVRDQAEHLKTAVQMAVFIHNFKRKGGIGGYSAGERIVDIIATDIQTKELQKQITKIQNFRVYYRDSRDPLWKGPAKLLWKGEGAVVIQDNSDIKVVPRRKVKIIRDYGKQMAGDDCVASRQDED

`CO[C@@H]1[C@H](O)[C@@H](COP(=O)(S)O[C@H]2[C@@H](OC)[C@H](n3cnc4c(=O)[nH]c(N)nc43)O[C@@H]2COP(=O)(S)O[C@H]2[C@@H](OC)[C@H](n3ccc(=O)[nH]c3=O)O[C@@H]2COP(=O)(S)O[C@H]2[C@@H](OC)[C@H](n3cnc4c(=O)[nH]c(N)nc43)O[C@@H]2COP(=O)(S)O[C@H]2[C@@H](OC)[C@H](n3ccc(=O)[nH]c3=O)O[C@@H]2COP(=O)(S)O[C@H]2[C@@H](OC)[C@H](n3ccc(=O)[nH]c3=O)O[C@@H]2COP(=O)(S)O[C@H]2[C@@H](OC)[C@H](n3ccc(=O)[nH]c3=O)O[C@@H]2COP(=O)(S)O[C@H]2[C@@H](OC)[C@H](n3ccc(=O)[nH]c3=O)O[C@@H]2COP(=O)(S)O[C@H]2[C@@H](OC)[C@H](n3ccc(=O)[nH]c3=O)O[C@@H]2COP(=O)(S)O[C@H]2[C@@H](OC)[C@H](n3cnc4c(=O)[nH]c(N)nc43)O[C@@H]2COP(=O)(S)O[C@H]2[C@@H](OC)[C@H](n3cnc4c(=O)[nH]c(N)nc43)O[C@@H]2COP(=O)(S)OCCCCCCNC(=O)c2cc(Cl)c(C(=O)O)c(-c3c4cc(Cl)c(=O)c(Cl)c-4oc4c(Cl)c(O)c(Cl)cc34)c2Cl)O[C@H]1n1ccc(=O)[nH]c1=O` (some centres not stated) returned an IC50 of 19 nM.

Regarding `CCCCCCCC/C=C\CCCCCCCC(=O)NCCCOCC(O)COP(=O)(S)O[C@H]1[C@@H](OC)[C@H](n2ccc(=O)[nH]c2=O)O[C@@H]1COP(=O)(S)O[C@H]1[C@@H](OC)[C@H](n2cnc3c(=O)[nH]c(N)nc32)O[C@@H]1COP(=O)(S)O[C@H]1[C@@H](OC)[C@H](n2ccc(=O)[nH]c2=O)O[C@@H]1COP(=O)(S)O[C@H]1[C@@H](OC)[C@H](n2cnc3c(=O)[nH]c(N)nc32)O[C@@H]1COP(=O)(S)O[C@H]1[C@@H](OC)[C@H](n2ccc(=O)[nH]c2=O)O[C@@H]1COP(=O)(S)O[C@H]1[C@@H](OC)[C@H](n2ccc(=O)[nH]c2=O)O[C@@H]1COP(=O)(S)O[C@H]1[C@@H](OC)[C@H](n2ccc(=O)[nH]c2=O)O[C@@H]1COP(=O)(S)O[C@H]1[C@@H](OC)[C@H](n2ccc(=O)[nH]c2=O)O[C@@H]1COP(=O)(S)O[C@H]1[C@@H](OC)[C@H](n2ccc(=O)[nH]c2=O)O[C@@H]1COP(=O)(S)O[C@H]1[C@@H](OC)[C@H](n2cnc3c(=O)[nH]c(N)nc32)O[C@@H]1COP(=O)(S)O[C@H]1[C@@H](OC)[C@H](n2cnc3c(=O)[nH]c(N)nc32)O[C@@H]1COP(=O)(S)OCCCCCCNC(=O)c1cc(Cl)c(C(=O)O)c(-c2c3cc(Cl)c(=O)c(Cl)c-3oc3c(Cl)c(O)c(Cl)cc23)c1Cl` (some centres not stated), half-maximal inhibition (IC50) required 20 nM.
